Values after ≈ are worked out from the molar mass of the structure shown. Values joined by “and” are separate entries in the source; they are usually repeats but may differ in a detail not shown here. Equal entries are not always repeated.
What was measured:
[1] = tested on: Pseudoperonospora cubensis (resistance to metalaxyl); details: in vivo
[2] = tested on: Peronospora tabacina R strain; assay: Control of downy mildew in tobacco, fungal isolate R (sporulation inhibition); type: in vivo
[3] = tested on: Peronospora tabacina S strain; assay: Control of downy mildew in tobacco, fungal isolate S (sporulation inhibition); type: in vivo
[4] = tested on: Plasmopara viticola; details: in vivo
[5] = 50 mg/L active ingredient, fungal isolate R, Table 28
[6] = 0.5 mg/L active ingredient, tobacco, fungal isolate S (Table 31)
[7] = 5 mg/L active ingredient, tobacco, fungal isolate S (Table 31)
[8] = 50 mg/L active ingredient, tobacco, fungal isolate S (Table 31)
[9] = 16 mg/L active ingredient, fungal isolate R, Table 29
[10] = 62 mg/L active ingredient, fungal isolate R, Table 29
[11] = 100 mg/L active ingredient, fungal isolate R, Table 30
[12] = 200 mg/L active ingredient, fungal isolate R, Table 30
[13] = 250 mg/L active ingredient, fungal isolate R, Table 29
[14] = 400 mg/L active ingredient, fungal isolate R, Table 30

COCC(=O)N(c1c(C)cccc1C)[C@H](C)C(=O)OC (single isomer, unassigned) [Metalaxyl Single Isomer]
ED90 [1]: 844 µg/mL (≈ 3020 µM) | Percent Disease Control [1]: 0% and 8%

CO/C=C(/C(=O)OC)c1ccccc1Oc1cc(Oc2ccccc2C#N)ncn1 [AZOXYSTROBINE, Azoxystrobin]
Percent Disease Control ([2]; 5 mg/L active ingredient, fungal isolate R, Table 28): 81% | Percent Disease Control ([2]; 10 mg/L active ingredient, fungal isolate R, Table 28): 81% | Percent Disease Control ([2]; 25 mg/L active ingredient, fungal isolate R, Table 28): 81% | Percent Disease Control [2, 5]: 93% | Percent Disease Control ([2]; dose not printed (value stands in the Ratio column), fungal isolate R, Table 28): 13% | ED90 ([2]; fungal isolate R, Table 28): 27 µg/mL (≈ 66.9 µM)

CC(N)CC(=O)O (stereo not drawn) [BABA, DLβ-amino-butanoic acid]
Percent Disease Control [3, 6]: 0% | Percent Disease Control [3, 7]: 27% | Percent Disease Control [3, 8]: 59% | ED90 ([3]; in vivo): 78 µg/mL (≈ 756 µM) | ED90 [4]: 38 µg/mL and 33 µg/mL and 36 µg/mL and 44 µg/mL | Percent Disease Control [2, 9]: 3% | Percent Disease Control [2, 5]: 0% | Percent Disease Control [2, 10]: 27% | Percent Disease Control ([2]; 100 mg/L active ingredient, fungal isolate R, Table 28): 13% | Percent Disease Control [2, 11]: 37% | Percent Disease Control ([2]; 200 mg/L active ingredient, fungal isolate R, Table 28): 100% | Percent Disease Control [2, 12]: 62% | Percent Disease Control [2, 13]: 51% | Percent Disease Control [2, 14]: 100%

CSC(=O)c1cccc2nnsc12 [BION, Acibenzolar-s-methyl]
Percent Disease Control [3, 6]: 54% | Percent Disease Control [3, 7]: 76% | Percent Disease Control [3, 8]: 85% | ED90 ([3]; tobacco, fungal isolate S (Table 31)): 52 µg/mL (≈ 247 µM) | ED90 [4]: 6 µg/mL (≈ 28.5 µM) | Percent Disease Control [2, 9]: 76% | Percent Disease Control [2, 10]: 76% | Percent Disease Control [2, 11]: 37% | Percent Disease Control [2, 12]: 50% | Percent Disease Control [2, 13]: 99% | Percent Disease Control [2, 14]: 80% | ED90 ([2]; fungal isolate R, Table 29): 88 µg/mL (≈ 418 µM) | ED90 ([2]; fungal isolate R, Table 30): 443 µg/mL (≈ 2110 µM)

[Cu+2].[OH-].[OH-] [Cu(OH)2, copper hydroxide]
ED90 [1]: 304 µg/mL | Percent Disease Control [1]: 67% and 77% and 80%

CCNC(=O)NC(=O)/C(C#N)=N/OC [Cymoxanil]
Percent Disease Control [2, 11]: 25% | Percent Disease Control [2, 12]: 25% | Percent Disease Control [2, 14]: 62% | ED90 ([2]; in vivo): 596 µg/mL (≈ 3010 µM)

COc1ccc(C(=CC(=O)N2CCOCC2)c2ccc(Cl)cc2)cc1OC [DMN, DIMETHOMORPH]
ED90 [4]: 19 µg/mL (≈ 49 µM) | Percent Disease Control [1]: 32% Control

O=C1c2ccccc2C(=O)N1SC(Cl)(Cl)Cl [FOLPET, Folpet]
ED90 [1]: 403 µg/mL (≈ 1360 µM)

Cc1ccc(C(C)NC(=O)[C@@H](NC(=O)OC(C)C)C(C)C)cc1 (stereo partly shown) [Fencaramid]
ED90 [1]: 19 µg/mL (≈ 59.3 µM) | Percent Disease Control [1]: 78% and 83% and 95% and 100%

COCC(=O)N(c1c(C)cccc1C)[C@H](C)C(=O)OC [RIDOMILGOLD]
Percent Disease Control [2, 9]: 49% | Percent Disease Control [2, 10]: 37% | Percent Disease Control [2, 11]: 20% | Percent Disease Control [2, 12]: 35% | Percent Disease Control [2, 13]: 58% | Percent Disease Control [2, 14]: 42% | ED90 ([2]; fungal isolate R, Table 29): 416 µg/mL (≈ 1490 µM) | ED90 ([2]; fungal isolate R, Table 30): >1000 µg/mL

Mancozeb
ED90 [1]: 315 µg/mL and 167 µg/mL

— patent US6414019B1, “Synergistic mixtures of selected amino acids” (Agrogene Ltd., priority 1997, dated 2002)
